Laboratory results: ChEMBL document CHEMBL5325398, “Design of Cytochrome P450 1B1 Inhibitors via a Scaffold-Hopping Approach” (J Med Chem, 2023)

Assays:
[1] = Cytotoxicity against HEK293-T-REx cells assessed as reduction in cell viability measured after 72 hrs by resazurin dye based analysis; assay type: toxicity, Homo sapiens; conditions: for IC50: hek293-t-rex; for IC50 at 72 h: human, HEK293-T-REx cells
in vitro [2] = conditions: human, liver
in vitro [3] = conditions: rat, liver
in vitro [4] = conditions: mouse, liver
Cytochrome P450 1B1 [5] = molecular target: Cytochrome P450 1B1 (Homo sapiens, UniProt Q16678, S127C); assay: Inhibition of CYP1B1 S127C mutant (unknown origin) expressed in HEK293-T-REx cells; assay type: ADME, cell-based
Cytochrome P450 1B1 (Homo sapiens, UniProt Q16678, S127C), sequence (Q16678 whole entry S127C): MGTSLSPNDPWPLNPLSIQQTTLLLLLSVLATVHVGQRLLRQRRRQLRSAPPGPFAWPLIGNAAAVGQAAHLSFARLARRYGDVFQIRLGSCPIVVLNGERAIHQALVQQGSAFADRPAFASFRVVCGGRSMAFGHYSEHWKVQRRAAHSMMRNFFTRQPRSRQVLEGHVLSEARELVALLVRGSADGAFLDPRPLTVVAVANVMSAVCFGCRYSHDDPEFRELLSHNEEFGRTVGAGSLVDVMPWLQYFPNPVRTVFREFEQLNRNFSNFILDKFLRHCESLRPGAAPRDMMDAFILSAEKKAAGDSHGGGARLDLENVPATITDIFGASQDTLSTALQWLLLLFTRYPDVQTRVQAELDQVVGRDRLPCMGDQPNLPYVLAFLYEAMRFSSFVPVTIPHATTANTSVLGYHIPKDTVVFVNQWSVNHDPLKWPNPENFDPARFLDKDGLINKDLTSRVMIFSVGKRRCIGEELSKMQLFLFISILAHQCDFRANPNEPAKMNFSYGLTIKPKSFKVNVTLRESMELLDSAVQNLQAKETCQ

Cytochrome P450 1B1 [6] = molecular target: Cytochrome P450 1B1 (Homo sapiens, UniProt Q16678, T334V); assay: Inhibition of CYP1B1 T334V mutant (unknown origin) expressed in HEK293-T-REx cells; assay type: ADME, cell-based
Cytochrome P450 1B1 (Homo sapiens, UniProt Q16678, T334V), sequence (Q16678 whole entry T334V): as the sequence (Q16678 whole entry S127C) above, with C127S, T334V counted along it

Cytochrome P450 1B1 [7] = molecular target: Cytochrome P450 1B1 (Homo sapiens, UniProt Q16678, T510V); assay: Inhibition of CYP1B1 T510V mutant (unknown origin) expressed in HEK293-T-REx cells; assay type: ADME, cell-based
Cytochrome P450 1B1 (Homo sapiens, UniProt Q16678, T510V), sequence (Q16678 whole entry T510V): as the sequence (Q16678 whole entry S127C) above, with C127S, T510V counted along it

Cytochrome P450 1A1 = molecular target: T1, Cytochrome P450 1A1 (Homo sapiens, UniProt P04798); assay: Inhibition of CYP1A1 (unknown origin) expressed in HEK293-T-REx cells co-expressing POR incubated for 1 hr by resorufin dye based plate reader analysis; assay type: ADME, cell-based
T1 sequence (P04798 whole entry): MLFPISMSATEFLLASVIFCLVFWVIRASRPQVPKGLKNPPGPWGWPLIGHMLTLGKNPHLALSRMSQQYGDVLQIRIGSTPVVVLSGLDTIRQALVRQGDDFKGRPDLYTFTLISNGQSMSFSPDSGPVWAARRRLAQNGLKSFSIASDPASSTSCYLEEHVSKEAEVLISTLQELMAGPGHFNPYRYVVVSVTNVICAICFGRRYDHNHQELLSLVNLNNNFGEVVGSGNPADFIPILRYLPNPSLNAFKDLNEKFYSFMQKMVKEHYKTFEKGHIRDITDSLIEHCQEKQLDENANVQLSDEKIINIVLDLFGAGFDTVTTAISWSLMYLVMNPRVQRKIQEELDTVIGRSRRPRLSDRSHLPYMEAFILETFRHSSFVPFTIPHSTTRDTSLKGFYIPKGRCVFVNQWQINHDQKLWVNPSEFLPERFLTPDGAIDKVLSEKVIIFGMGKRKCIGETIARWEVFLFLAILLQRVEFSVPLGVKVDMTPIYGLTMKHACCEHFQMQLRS

Cytochrome P450 1B1 [8] = molecular target: T2, Cytochrome P450 1B1 (Homo sapiens, UniProt Q16678); assay: Inhibition of CYP1B1 (unknown origin) expressed in HEK293-T-REx cells co-expressing POR incubated for 1 hr by resorufin dye based plate reader analysis; assay type: ADME, cell-based
T2 sequence (Q16678 whole entry): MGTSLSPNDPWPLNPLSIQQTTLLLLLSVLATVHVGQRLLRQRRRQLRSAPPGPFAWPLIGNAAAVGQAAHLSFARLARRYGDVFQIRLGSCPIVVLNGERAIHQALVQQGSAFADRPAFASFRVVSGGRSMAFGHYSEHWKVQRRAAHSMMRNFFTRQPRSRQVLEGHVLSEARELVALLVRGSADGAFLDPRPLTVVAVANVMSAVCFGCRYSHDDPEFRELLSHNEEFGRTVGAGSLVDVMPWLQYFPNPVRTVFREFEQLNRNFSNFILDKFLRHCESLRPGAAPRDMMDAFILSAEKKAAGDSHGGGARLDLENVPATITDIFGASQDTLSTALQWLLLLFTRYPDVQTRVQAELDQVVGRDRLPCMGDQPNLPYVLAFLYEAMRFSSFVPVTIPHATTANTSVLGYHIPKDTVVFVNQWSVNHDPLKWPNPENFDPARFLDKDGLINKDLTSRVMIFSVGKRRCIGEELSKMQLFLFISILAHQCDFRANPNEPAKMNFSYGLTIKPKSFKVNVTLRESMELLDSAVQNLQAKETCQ

Cytochrome P450 1B1 [9] = molecular target: T2, Cytochrome P450 1B1; assay: Binding affinity to N-terminal human microsomal CYP1B1 expressed in Escherichia coli assessed as spectral dissociation constant by absorbance based analysis
CYP1A1 versus CYP1B1 = assay: Selectivity index, ratio of IC50 for CYP1A1 (unknown origin) to IC50 for CYP1B1 (unknown origin); conditions: read-out: Ratio IC50

SMILES: COc1cc(OC)cc(-c2cccc(-c3cc(OC)cc(OC)c3)c2)c1
- IC50 [1]: 4.18 µM

SMILES: COc1ccc(-c2csc(-c3ccc(OC)cc3OC)n2)c(OC)c1
- IC50 [1]: ~100 µM

SMILES: COc1ccc(-c2csc(-c3ccc(OC)cc3OC)n2)cc1
- IC50 [1]: > 100 µM

SMILES: O=C(O)Cc1ccccc1Nc1c(Cl)cccc1Cl [DICLOFENAC]
- CLint scaled at 100 µM (in vitro [2]): 324 mL/min/kg
- CLint scaled at 100 µM (in vitro [3]): 142 mL/min/kg
- CLint scaled at 100 µM (in vitro [4]): 178 mL/min/kg

SMILES: COc1cc(OC)cc(-c2cncc(-c3cc(OC)cc(OC)c3)c2)c1
- IC50 [1]: 0.18 µM

SMILES: COc1ccc(-c2cccc(-c3ccc(OC)cc3OC)c2)c(OC)c1
- IC50 [1]: 1.62 µM

SMILES: COc1ccc(-c2nc(-c3ccc(F)cc3)cs2)c(OC)c1
- IC50 [1]: 51.4 µM

SMILES: COc1cc(OC)cc(-c2csc(-c3cc(OC)cc(OC)c3)n2)c1
- IC50 at 72 h [1]: 10 µM

SMILES: COc1cc(/C=C/c2ccc(OC)cc2OC)cc(OC)c1
- IC50 [1]: 1.3 µM
- inhibition (INH) (Cytochrome P450 1B1 [5]): Active
- inhibition (INH) (Cytochrome P450 1B1 [6]): Not Active
- inhibition (INH) (Cytochrome P450 1B1 [7]): Not Active

SMILES: COc1ccc(OC)c2c1c(OC)cc1c(=O)cc(-c3cccc(F)c3)oc12
- IC50 (Cytochrome P450 1A1): 0.012 µM

SMILES: COc1cc(OC)cc(-c2ccc(-c3cc(OC)cc(OC)c3)s2)c1
- IC50 [1]: > 10 µM

SMILES: COc1cc(OC)cc(-c2ccnc(-c3cc(OC)cc(OC)c3)n2)c1
- IC50 at 72 h [1]: 10 µM

SMILES: COc1ccc(/C=C/c2ccncc2)c(OC)c1
- IC50 (Cytochrome P450 1A1): 4.57 µM

SMILES: COc1ccc(-c2nc(-c3cccnc3)cs2)c(OC)c1
- IC50 [1]: 26.7 µM

SMILES: O=c1cc(-c2ccccc2)oc2c1ccc1ccccc12 [ALPHA-NAPHTHOFLAVONE]
- IC50 [1]: 14.8 µM
- inhibition (INH) (Cytochrome P450 1B1 [5]): Active
- inhibition (INH) (Cytochrome P450 1B1 [6]): Not Active
- inhibition (INH) (Cytochrome P450 1B1 [7]): Active

SMILES: COc1cc(OC)cc(-c2cc(-c3cc(OC)cc(OC)c3)ncn2)c1
- IC50 [1]: 10 µM

SMILES: COc1ccc(-c2nc(-c3ccc(O)cc3)cs2)c(OC)c1
- IC50 (Cytochrome P450 1B1 [8]): 0.6 µM
- IC50 [1]: 3.4 µM
- Kd (Cytochrome P450 1B1 [9]): 0.35 µM

SMILES: COc1ccc(-c2nc(-c3ccc(C#N)cc3)cs2)c(OC)c1
- IC50 [1]: > 100 µM
- inhibition (INH) (Cytochrome P450 1B1 [6]): Not Active
- inhibition (INH) (Cytochrome P450 1B1 [7]): Not Active

SMILES: C#C[C@]1(O)CC[C@H]2[C@@H]3CCc4cc(O)c(-c5ccc(OC)cc5)cc4[C@H]3CC[C@@]21C
- IC50 (Cytochrome P450 1B1 [8]): 0.37 µM
- IC50 (Cytochrome P450 1A1): 9.2 µM
- selectivity ratio (CYP1A1 versus CYP1B1): 25
